From US20250186627A1, “RADIOLABELED COMPOUNDS TARGETING THE PROSTATE-SPECIFIC MEMBRANE ANTIGEN” (PROVINCIAL HEALTH SERVICES AUTHORITY, priority 2022, published 2025)
*1 amine or outer side, *2 acyl side, *3 side chain or, on linkers, in order; H or OH if unused. Where a SMILES comes first, the peptide text is derived from it. [ ]: non-standard residue; d: D form. The star is where a group is joined. ξ: configuration not given here. ξLys(Nα-CO-ξAad) = O=C(O)CCCC(NC(=O)NC(CCCCN*)C(=O)O)C(=O)O; Butanoyl(4-(4-NO2Ph)) = O=C(CCCc1ccc([N+](=O)[O-])cc1)*; DOTA = O=C(O)CN1CCN(CC(=O)O)CCN(CC(=O)*)CCN(CC(=O)O)CC1; ξAla(9-anthryl) = NC(Cc1c2ccccc2cc2ccccc12)C(=O)O; X1 = O=C(C1CCC(CN[*:1])CC1)[*:2]; ξK = NCCCCC(N)C(=O)O

Test system: NRG-mice bearing LNCaP tumors
Experiment: Biodistribution (and PET/SPECT imaging) in NRG-mice bearing LNCaP tumors
Type: in vivo
Settings: Avg
Protocol: LNCaP cell line was obtained from ATCC (LNCaP clone FGC, CRL-1740). It was established from a metastatic site of left supraclavicular lymph node of human prostatic adenocarcinoma. Cells were cultured in PRMI 1640 medium supplemented with 10% FBS, penicillin (100 U/mL) and streptomycin (100 μg/mL) at 37° C. in a humidified incubator containing 5% CO2. Cells grown to 80-90% confluence were then washed with sterile phosphate-buffered saline (1×PBS pH 7.4) and trypsinization. The collected cells number was counted with a Hausser Scientific (Horsham, PA) Hemacytometer. Approximately 10 million LNCaP cells were inoculated into the left dorsal flank of immunocomprised NRG mice. The tumours were allowed to grow for 4-6 weeks and used for imaging and biodistribution studies when a volume of 200-600 mm^3 was reached.
PET imaging experiments were conducted using Siemens Inveon micro PET/CT scanner. SPECT imaging experiments were conducted using an MILabs micro SPECT/CT scanner. Each tumor bearing mouse was injected 4-6 MBq of ^68Ga or 18.5 MBq of ^177Lu labeled tracer through the tail vein under anesthesia (2% isoflurane in oxygen). The mice were allowed to recover and roam freely in their cage. At pre-defined time point, the mice were sedated again with 2% isoflurane in oxygen inhalation and positioned in the scanner. A 10-min CT scan was conducted first for localization and attenuation correction after segmentation for reconstructing the PET or SPECT images. Then, a 10-min static PET imaging or a one hour (30 min×2 frames) of static SPECT scan was performed to determined uptake in tumor and other organs. The mice were kept warm by a heating pad during acquisition.
For biodistribution studies, the mice were injected with the radiotracer as described above. The mice were anesthetized with 2% isoflurane inhalation, and euthanized by CO2 inhalation. Blood was withdrawn immediately from the heart, and the organs/tissues of interest were collected. The collected organs/tissues were weighed and counted using a Perkin Elmer (Waltham, MA) Wizard2 2480 gamma counter. The uptake in each organ/tissue was normalized to the injected dose (radioactivity) using a standard curve, and expressed as the percentage of the injected dose per gram of tissue (% ID/g).

Biodistribution: Adrenal gland (3 h p.i.): 3.61 % ID/g | Biodistribution: Blood (3 h p.i.): 9.83 % ID/g | Biodistribution: Bone (3 h p.i.): 1.24 % ID/g | Biodistribution: Brain (3 h p.i.): 0.19 % ID/g | Biodistribution: Fat (3 h p.i.): 1.96 % ID/g | Biodistribution: Heart (3 h p.i.): 2.27 % ID/g | Biodistribution: Intestine (3 h p.i.): 1.02 % ID/g | Biodistribution: LNCaP tumor (3 h p.i.): 23.63 % ID/g | Biodistribution: Lacrimal gland (3 h p.i.): 0.92 % ID/g | Biodistribution: Liver (3 h p.i.): 1.90 % ID/g | Biodistribution: Lungs (3 h p.i.): 4.93 % ID/g | Biodistribution: Muscle (3 h p.i.): 0.80 % ID/g | Biodistribution: Pancreas (3 h p.i.): 1.14 % ID/g | Biodistribution: Salivary gland (3 h p.i.): 3.37 % ID/g | Biodistribution: Seminal gland (3 h p.i.): 2.26 % ID/g | Biodistribution: Spleen (3 h p.i.): 1.15 % ID/g | Biodistribution: Stomach (3 h p.i.): 0.47 % ID/g | Biodistribution: Testes (3 h p.i.): 2.73 % ID/g | Biodistribution: Thyroid (3 h p.i.): 1.72 % ID/g | Biodistribution: Urine (3 h p.i.): 142.80 % ID/g | Biodistribution: kidney (3 h p.i.): 14.29 % ID/g | Biodistribution: Adrenal gland (24 h p.i.): 0.59 % ID/g | Biodistribution: Blood (24 h p.i.): 0.28 % ID/g | Biodistribution: Bone (24 h p.i.): 0.30 % ID/g | Biodistribution: Brain (24 h p.i.): 0.03 % ID/g | Biodistribution: Fat (24 h p.i.): 0.13 % ID/g | Biodistribution: Heart (24 h p.i.): 0.25 % ID/g | Biodistribution: Intestine (24 h p.i.): 0.15 % ID/g | Biodistribution: LNCaP tumor (24 h p.i.): 42.31 % ID/g | Biodistribution: Lacrimal gland (24 h p.i.): 0.32 % ID/g | Biodistribution: Liver (24 h p.i.): 0.68 % ID/g | Biodistribution: Lungs (24 h p.i.): 0.58 % ID/g | Biodistribution: Muscle (24 h p.i.): 0.06 % ID/g | Biodistribution: Pancreas (24 h p.i.): 0.09 % ID/g | Biodistribution: Salivary gland (24 h p.i.): 0.35 % ID/g | Biodistribution: Seminal gland (24 h p.i.): 0.15 % ID/g | Biodistribution: Spleen (24 h p.i.): 0.50 % ID/g | Biodistribution: Stomach (24 h p.i.): 0.20 % ID/g | Biodistribution: Testes (24 h p.i.): 0.38 % ID/g | Biodistribution: Thyroid (24 h p.i.): 0.33 % ID/g | Biodistribution: Urine (24 h p.i.): 4.30 % ID/g | Biodistribution: kidney (24 h p.i.): 6.87 % ID/g | Biodistribution: Adrenal gland (72 h p.i.): 24.11 % ID/g | Biodistribution: Blood (72 h p.i.): 0.01 % ID/g | Biodistribution: Bone (72 h p.i.): 0.34 % ID/g | Biodistribution: Brain (72 h p.i.): 0.02 % ID/g | Biodistribution: Fat (72 h p.i.): 0.40 % ID/g | Biodistribution: Heart (72 h p.i.): 0.16 % ID/g | Biodistribution: Intestine (72 h p.i.): 0.06 % ID/g | Biodistribution: LNCaP tumor (72 h p.i.): 54.12 % ID/g | Biodistribution: Lacrimal gland (72 h p.i.): 1.39 % ID/g | Biodistribution: Liver (72 h p.i.): 0.51 % ID/g | Biodistribution: Lungs (72 h p.i.): 0.19 % ID/g | Biodistribution: Muscle (72 h p.i.): 0.04 % ID/g | Biodistribution: Pancreas (72 h p.i.): 0.09 % ID/g | Biodistribution: Salivary gland (72 h p.i.): 0.33 % ID/g | Biodistribution: Seminal gland (72 h p.i.): 0.03 % ID/g | Biodistribution: Spleen (72 h p.i.): 0.93 % ID/g | Biodistribution: Stomach (72 h p.i.): 0.06 % ID/g | Biodistribution: Testes (72 h p.i.): 0.33 % ID/g | Biodistribution: Thyroid (72 h p.i.): 0.22 % ID/g | Biodistribution: Urine (72 h p.i.): 1.33 % ID/g | Biodistribution: kidney (72 h p.i.): 3.62 % ID/g | Biodistribution: Adrenal gland (144 h p.i.): 0.31 % ID/g | Biodistribution: Blood (144 h p.i.): 0.01 % ID/g | Biodistribution: Bone (144 h p.i.): 0.23 % ID/g | Biodistribution: Brain (144 h p.i.): 0.02 % ID/g | Biodistribution: Fat (144 h p.i.): 0.07 % ID/g | Biodistribution: Heart (144 h p.i.): 0.14 % ID/g | Biodistribution: Intestine (144 h p.i.): 0.06 % ID/g | Biodistribution: LNCaP tumor (144 h p.i.): 71.25 % ID/g | Biodistribution: Lacrimal gland (144 h p.i.): 0.65 % ID/g | Biodistribution: Liver (144 h p.i.): 0.71 % ID/g | Biodistribution: Lungs (144 h p.i.): 0.13 % ID/g | Biodistribution: Muscle (144 h p.i.): 0.02 % ID/g | Biodistribution: Pancreas (144 h p.i.): 0.14 % ID/g | Biodistribution: Salivary gland (144 h p.i.): 0.21 % ID/g | Biodistribution: Seminal gland (144 h p.i.): 0.04 % ID/g | Biodistribution: Spleen (144 h p.i.): 0.65 % ID/g | Biodistribution: Stomach (144 h p.i.): 0.05 % ID/g | Biodistribution: Testes (144 h p.i.): 0.29 % ID/g | Biodistribution: Thyroid (144 h p.i.): 0.23 % ID/g | Biodistribution: Urine (144 h p.i.): 0.55 % ID/g | Biodistribution: kidney (144 h p.i.): 1.95 % ID/g | Biodistribution: Adrenal gland (240 h p.i.): 0.53 % ID/g | Biodistribution: Blood (240 h p.i.): 0.02 % ID/g | Biodistribution: Bone (240 h p.i.): 0.57 % ID/g | Biodistribution: Brain (240 h p.i.): 0.02 % ID/g | Biodistribution: Fat (240 h p.i.): 0.13 % ID/g | Biodistribution: Heart (240 h p.i.): 0.16 % ID/g | Biodistribution: Intestine (240 h p.i.): 0.06 % ID/g | Biodistribution: LNCaP tumor (240 h p.i.): 123.67 % ID/g | Biodistribution: Lacrimal gland (240 h p.i.): 0.19 % ID/g | Biodistribution: Liver (240 h p.i.): 1.49 % ID/g | Biodistribution: Lungs (240 h p.i.): 0.18 % ID/g | Biodistribution: Muscle (240 h p.i.): 0.08 % ID/g | Biodistribution: Pancreas (240 h p.i.): 0.06 % ID/g | Biodistribution: Salivary gland (240 h p.i.): 0.32 % ID/g | Biodistribution: Seminal gland (240 h p.i.): 0.06 % ID/g | Biodistribution: Spleen (240 h p.i.): 1.14 % ID/g | Biodistribution: Stomach (240 h p.i.): 0.08 % ID/g | Biodistribution: Testes (240 h p.i.): 0.27 % ID/g | Biodistribution: Thyroid (240 h p.i.): 0.23 % ID/g | Biodistribution: Urine (240 h p.i.): 0.41 % ID/g | Biodistribution: kidney (240 h p.i.): 2.24 % ID/g
Compound: O=C([O-])CN1CCN(CC(=O)[O-])CCN(CC(=O)NCCCCC(NC(=O)CNC(=O)CCCc2ccc([N+](=O)[O-])cc2)C(=O)NCC(=O)NCC2CCC(C(=O)NC(Cc3c4ccccc4cc4ccccc34)C(=O)NCCCCC(NC(=O)NC(CCCC(=O)O)C(=O)O)C(=O)O)CC2)CCN(CC(=O)[O-])CC1.[225Ac+3] (stereo not drawn) [^225Ac-CCZ02017] ({Butanoyl(4-(4-NO2Ph))}-G[ξK](DOTA)G[X1][ξAla(9-anthryl)]-{ξLys(Nα-CO-ξAad)})
